Source: patent publication US20250270170A1, “2,3-DIMETHOXY-5-METHYL-1,4-BENZOQUINONE ALKYL ALCOHOL DERIVATIVE AND USE THEREOF” (BEIJING ANJIANXI BIO-MEDICAL TECHNOLOGY CO., LTD., priority 2021, published 2025)

What was measured:
NCI-H460 cells = experiment: Flow cytometry for cell cycle detection, NCI-H460; format: cell-based, human
Protocol: (§1) (1) Cells were inoculated in a 6-well plate. When about 50% of the cells were adherent and fused, the compound of formula (I) at a concentration of 0 μM, 10 μM, 30 μM, and 90 μM were added, respectively. The plate was placed in an incubator at 37° C. with 5% CO2 to continue culturing, and three time points were set, which were 24 h, 48 h and 72 h, respectively.
(§2) (2) After reaching the designated time point, the cell culture plate was taken out from the incubator, and placed in a biological safety cabinet. A 4 ml centrifuge tube was taken and marked. The supernatant in each well was pipetted out and added to the corresponding 4 ml centrifuge tube. The cells were gently washed with PBS, and the PBS was added to the corresponding centrifuge tube. An appropriate amount of trypsin was added to each well to digest the cells. When the cells were digested to a moderate degree, the old culture medium from the centrifuge tube was added to the corresponding well. The cells were gently pipetted with apipette to form a single-cell suspension, which was pipetted back into the original centrifuge tube. The tube was immediately centrifuged at 1500 rpm for 5 minutes. Then, the supernatant was discarded and the precipitate was retained.
(§3) (3) 2 ml of pre-chilled PBS was added to the centrifuge tube, and centrifuged again at 1500 rpm for 5 minutes. The supernatant was discarded, and the cell debris was removed.
(§4) (4) 1 ml of 75% ethanol was added while pipetting the cells, to make the cells appear as single as possible. Then, the cells were fixed at 4° C. overnight or stored at −20° C. for long-term storage (can be stored for 1 week).
(§5) (5) The fixed cells were taken out, and centrifuged at 1000 rpm for 5 minutes. The ethanol was discarded, and pre-chilled PBS was added to wash the cells. Then, the cells were centrifuged at 1000 rpm for 5 min to remove the residual ethanol on the cells.
(§6) (6) A cell cycle detection kit from Wuhan Promoter Biology Co., Ltd. was used. 100 μl of RNaseA was added, and incubated in a 37° C. water bath for 30 minutes.
(§7) (7) 400 μl of PI was added and mixed well, and incubated at 4° C. in dark for 30 minutes.
(§8) (8) The cell cycle was detected by upflow cytometry.

A549 cells [1] = experiment: Colony formation assay, A549; format: cell-based, human; settings: 50 μM and 150 μM vs 0 μM, about 2 weeks
Protocol: (1) The cell status was observed under a microscope. Cells in the logarithmic growth phase were selected and digested to make a cell suspension. 20 μl of the cell suspension was taken with a pipette and added to the CountStar disposable cell counting plate for cell counting, and the counting results were recorded.
(2) A 6-well culture plate was used for colony formation assay. Approximately 1,000 cells were inoculated into each well, and the complete culture medium was added to make up the volume to 2.5 ml per well. The cells were shaked in a figure-8 pattern to disperse the cells evenly. The next day, the compound of formula (I) at different concentrations (0 μM, 50 μM, and 150 μM) were added to the corresponding wells according to the assay plan, and incubated in an incubator at 37° C. with 5% CO2 for about 2 weeks. The culture was terminated when visible colonies appeared.
(3) The culture plate was taken out, and the old culture medium was discarded. The cells were gently washed twice with PBS.
(4) 500 μl of 4% paraformaldehyde fixative was added to each well to fix the cells at room temperature for 15 minutes, and then the fixative was discarded.
(5) 500 μl of 0.1% crystal violet solution was added to each well, and cells were stained at room temperature for at least 15 minutes. The crystal violet was discarded, and the staining solution was slowly washed away with running water. […]

A549 cells [2] = experiment: Flow cytometry for cell cycle detection, A549; format: cell-based, human
Protocol: as §1, §2, §3, §4, §5, §6, §7, §8

[3] = Solubility of the compound in organic solvents; format: physicochemical; settings: organic solvents (DMSO and isopropyl alcohol 3:7 selected)
Protocol: The containers with DMSO and isopropyl alcohol were opened in a biological safety cabinet. A 15 ml centrifuge tube was taken, and 3 ml of DMSO and 7 ml of isopropyl alcohol were added to make a mixed solvent. The molecular weight of the compound of formula (I) is 678.22 g/mol. 40.69 mg of an original drug of the compound of formula (I) was weighed, and 4 ml of the mixed solvent was added. The mixture was mixed well by pipetting. […] The solution was diluted according to the required concentration when being used.

## COC1=C(OC)C(=O)C(CCCCCCCCCCOC(=O)Cc2c(C)n(C(=O)c3ccc(Cl)cc3)c3ccc(OC)cc23)=C(C)C1=O [compound of formula (I)]
NCI-H460 cells; 10 μM, 24 h
  proportion of S phase cells: 26.03%
NCI-H460 cells; 10 μM, 48 h
  proportion of S phase cells: 29.62%
NCI-H460 cells; 10 μM, 72 h
  proportion of S phase cells: 21.61%
NCI-H460 cells; 30 μM, 24 h
  proportion of S phase cells: 13.15%
NCI-H460 cells; 30 μM, 48 h
  proportion of S phase cells: 16.02%
NCI-H460 cells; 30 μM, 72 h
  proportion of S phase cells: 20.98%
NCI-H460 cells; 90 μM, 24 h
  proportion of S phase cells: 9.76%
NCI-H460 cells; 90 μM, 48 h
  proportion of S phase cells: 0.97%
NCI-H460 cells; 90 μM, 72 h
  proportion of S phase cells: 3.36%
A549 cells [1]
  colony-forming ability: decreased significantly
A549 cells [2]; 10 μM, 24 h
  proportion of S phase of cells: 22.94%
A549 cells [2]; 10 μM, 48 h
  proportion of S phase of cells: 24.73%
A549 cells [2]; 10 μM, 72 h
  proportion of S phase of cells: 19.77%
A549 cells [2]; 30 μM, 24 h
  proportion of S phase of cells: 12.52%
A549 cells [2]; 30 μM, 48 h
  proportion of S phase of cells: 15.96%
A549 cells [2]; 30 μM, 72 h
  proportion of S phase of cells: 10.63%
A549 cells [2]; 90 μM, 24 h
  proportion of S phase of cells: 3.92%
A549 cells [2]; 90 μM, 48 h
  proportion of S phase of cells: 4.37%
A549 cells [2]; 90 μM, 72 h
  proportion of S phase of cells: 5.42%
[3]
  solubility in organic solvents: easily soluble
